The compounds below were run against human recombinant H-PGDS (Homo sapiens, UniProt O60760) (assay: Slightly modified fluorescence intensity h-PGDS TBA enzyme assay (1:40,000 enzyme, 40 second reaction, 1/2 log dilutions, top concentration typically 10 μM)). Settings: slightly modified assay: 1:40,000 human recombinant H-PGDS.
Sequence of human recombinant H-PGDS (O60760 whole entry): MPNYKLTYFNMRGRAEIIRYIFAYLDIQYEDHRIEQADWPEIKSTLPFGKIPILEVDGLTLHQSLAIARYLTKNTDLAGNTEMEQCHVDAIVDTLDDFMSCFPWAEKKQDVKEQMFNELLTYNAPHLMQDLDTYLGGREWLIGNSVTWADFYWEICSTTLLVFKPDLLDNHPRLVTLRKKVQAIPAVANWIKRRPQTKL
Format: biochemical
Method: Fluoresecence Intensity h-PGDSTBA Enzyme Assay
Prostaglandin D Synthase (PGDS) converts the substrate prostaglandin H2 (PGH2) to prostaglandin D2. The depletion of PGH2 was measured via an Fe(II) reduction of the remaining PGH2 to malondialdehyde (MDA) and 12-HHT. The enzyme assay is based on the quantitative formation of a fluorescent complex from the non-fluorescent compounds MDA and 2-thiobarbituric acid (TBA), substantially as described in U.S. patent application publication US-2004/152148 by Lombardt.
Examples 6-8, 11a-16, 23, 26-47, 49-103, 105-113, 115-118 and 126-128 were tested in a slightly modified assay: The enzyme assay (30 μls during biological process) contained 100 mM Trizma pH 8.0, 100 μM MgCl2, 0.1 mg/ml IgG Rabbit serum, 5.0 μM PGH2 (Cayman; ethanol solution, #17020), 2.5 mM L-Glutathione (Sigma; reduced form #G4251), 1:40,000 human recombinant H-PGDS (from 1 mg/ml), 0.5% DMSO and inhibitor (varying concentration). 3 μls of diluted inhibitor (dissolved in DMSO) was plated into a 384-well assay plate followed by a 24 μl addition of an enzyme solution containing h-PGDS, Trizma, MgCl2, IgG and L-Glutathione. After pre-incubation of inhibitor and enzyme solution for 10 minutes at room temperature, the reaction was initiated with a 3 μl addition of substrate solution in 10 mM HCl. The reaction was terminated after 40 second by the addition of 3 μl stop buffer containing FeCl2 and citric acid. After addition of 45 μls of TBA plates were heated for one hour in a 70° C. oven. Plates were cooled at room temperature overnight and read on a plate reader the next day with excitation @ 530 nm and emission @ 560 nm. IC50' s of inhibitors were calculated with a 4-parameter fit using 11 inhibitor concentrations in duplicate with ½ log serial dilutions. Controls on each plate included no inhibitor (zero % effect) and an inhibitor 500-fold in excess of its' IC50 (100% effect). The highest inhibitor concentration tested was typically 10 μM.
With `O=C(N[C@H]1CCC[C@@H](C(=O)N[C@@H]2CCOC2)C1)c1ccc(-c2cccc(F)c2)nc1` (mixture of isomers) [Example 64K, 6-(3-fluorophenyl)-N-{cis-3-[(3R)-tetrahydrofuran-3-ylcarbamoyl]cyclohexyl}nicotinamide] the IC50 was 10.9 nM. Work on `O=C(N[C@H]1CC[C@H](C(=O)N2CCOCC2)CC1)c1ccc(-c2cccc(F)c2)nc1` [Example 91, 6-(3-Fluorophenyl)-N-[trans-4-(morpholin-4-ylcarbonyl)cyclohexyl]nicotinamide] yielded an IC50 of 3.94 nM. For `Cc1nccn1C[C@H]1CC[C@H](NC(=O)c2ccc(-c3cccc(F)c3)nc2)CC1` [Example 113, 6-(3-Fluorophenyl)-N-{trans-4-[(2-methyl-1H-imidazol-1-yl)methyl]cyclohexyl}nicotinamide], the IC50 was 9.76 nM. Work on `O=C(N[C@H]1CC[C@H](C(=O)N2CCCC2)CC1)c1ccc(-c2cccc(F)c2)nc1` [Example 87, 6-(3-Fluorophenyl)-N-[trans-4-(pyrrolidin-1-ylcarbonyl)cyclohexyl]nicotinamide] yielded an IC50 of 2.07 nM. For `CN(Cc1ccccc1)C(=O)[C@@H]1CCC[C@H](NC(=O)c2ccc(-c3cccc(F)c3)nc2)C1` (relative stereo) [Example 39, N-{cis-3-[Benzyl(methyl)carbamoyl]cyclohexyl}-6-(3-fluorophenyl)nicotinamide], the IC50 was 4.26 nM. With `O=C(N[C@H]1CCC[C@@H](C(=O)N[C@@H]2CCNC2=O)C1)c1ccc(-c2cccc(F)c2)nc1` (mixture of isomers) [Example 64G, 6-(3-fluorophenyl)-N-[cis-3-{[(3R)-2-oxopyrrolidin-3-yl]carbamoyl}cyclohexyl]nicotinamide] the IC50 was 17.2 nM. Compound `CN(C)CCCNC(=O)[C@@H]1CCC[C@H](NC(=O)c2ccc(-c3cccc(F)c3)nc2)C1` (relative stereo) [Example 64F, N-[cis-3-{[3-(dimethylamino)propyl]carbamoyl}cyclohexyl]-6-(3-fluorophenyl)nicotinamide] has an IC50 of 16.8 nM. In the case of `COCCNC(=O)[C@@H]1CCC[C@H](NC(=O)c2ccc(-c3cccc(F)c3)nc2)C1` [Example 64A, 6-(3-fluorophenyl)-N-{(1S,3R)-3-[(2-methoxyethyl)carbamoyl]cyclohexyl}nicotinamide], the IC50 is reported as 8.3 nM. For `O=C(N[C@H]1CC[C@H](CN2CCOCC2)CC1)c1ccc(-c2cccc(F)c2)nc1` [Example 110, 6-(3-Fluorophenyl)-N-[trans-4-(morpholin-4-ylmethyl)cyclohexyl]nicotinamide], the IC50 was 5.9 nM. Work on `O=C(NC1CCC(NC2CCOC2)CC1)c1ccc(-c2cccc(F)c2)nc1` (single isomer, unassigned) [Example 57, 6-(3-Fluorophenyl)-N-[-4-(tetrahydrofuran-3-ylamino)cyclohexyl]nicotinamide] yielded an IC50 of 32 nM. Work on `O=C(NC1CCC(NC2CCOC2)CC1)c1ccc(-c2cccc(F)c2)nc1` (single isomer, unassigned) [Example 56, 6-(3-Fluorophenyl)-N-[-4-(tetrahydrofuran-3-ylamino)cyclohexyl]nicotinamide] yielded an IC50 of 30.6 nM. For `CCN1CCN(C(=O)[C@H]2CC[C@H](NC(=O)c3ccc(-c4cccc(F)c4)nc3)CC2)CC1` [Example 96, N-{trans-4-[(4-Ethylpiperazin-1-yl)carbonyl]cyclohexyl}-6-(3-fluorophenyl)nicotinamide], the IC50 was 23.7 nM. For `O=C(N[C@H]1CCC[C@@H](C(=O)N2CCC(O)CC2)C1)c1ccc(-c2cccc(F)c2)nc1` (relative stereo) [Example 28, 6-(3-Fluorophenyl)-N-{cis-3-[(4-hydroxypiperidin-1-yl)carbonyl]cyclohexyl}nicotinamide], the IC50 was 3.72 nM. For `CN1CCN(C(=O)[C@H]2CC[C@@H](NC(=O)c3ccc(-c4cccc(F)c4)nc3)C2)CC1` [Example 12, 6-(3-Fluorophenyl)-N-{(1R,3S)-3-[(4-methylpiperazin-1-yl)carbonyl]cyclopentyl}nicotinamide], the IC50 was 11.2 nM. `C[C@@H]1CNCCN1C(=O)[C@H]1CC[C@H](NC(=O)c2ccc(-c3cccc(F)c3)nc2)CC1` [Example 108, 6-(3-Fluorophenyl)-N-(trans-4-{[(2R)-2-methylpiperazin-1-yl]carbonyl}cyclohexyl)nicotinamide] showed an IC50 of 21.8 nM. With `O=C(N[C@H]1CCC[C@@H](C(=O)NCCN2CCCCC2)C1)c1ccc(-c2cccc(F)c2)nc1` (relative stereo) [Example 64I, 6-(3-fluorophenyl)-N-{cis-3-[(2-piperidin-1-ylethyl)carbamoyl]cyclohexyl}nicotinamide] the IC50 was 11.1 nM. `N[C@@H]1CCCC[C@H]1NC(=O)[C@@H]1CCC[C@H](NC(=O)c2ccc(-c3cccc(F)c3)nc2)C1` (mixture of isomers) [Example 64C, N-[cis-3-{[(1R,2R)-2-aminocyclohexyl]carbamoyl}cyclohexyl]-6-(3-fluorophenyl)nicotinamide] was tested, and the IC50 was 47 nM. Work on `CCn1cnc2c1CCC(NC(=O)c1ccc(-c3cccc(F)c3)nc1)C2` (stereo not drawn) [Example 126, N-(1-Ethyl-4,5,6,7-tetrahydro-1H-benzoimidazol-5-yl)-6-(3-fluoro-phenyl)-nicotinamide] yielded an IC50 of 4.07 nM. Compound `CC(=O)NC1CCC(NC(=O)c2ccc(-c3cccc(F)c3)nc2)CC1` (stereo not drawn) [Example 46, N-(4-Acetamidocyclohexyl)-6-(3-fluorophenyl)nicotinamide] has an IC50 of 10.7 nM. `Cc1nccn1C[C@H]1CC[C@@H](NC(=O)c2ccc(-c3cccc(F)c3)nc2)CC1` [Example 79, 6-(3-Fluorophenyl)-N-{cis-4-[(2-methyl-1H-imidazol-1-yl)methyl]cyclohexyl}nicotinamide] was tested, and the IC50 was 15.9 nM. In the case of `CC(C)NC(=O)[C@@H]1CCC[C@H](NC(=O)c2ccc(-c3cccc(F)c3)nc2)C1` (relative stereo) [Example 34, 6-(3-Fluorophenyl)-N-[cis-3-(isopropylcarbamoyl)cyclohexyl]nicotinamide], the IC50 is reported as 8.32 nM. `COCCNC1CCC(NC(=O)c2ccc(-c3cccc(F)c3)nc2)CC1` (single isomer, unassigned) [Example 54, 6-(3-Fluorophenyl)-N-{4-[(2-methoxyethyl)amino]cyclohexyl}nicotinamide] gave an IC50 of 87.2 nM. `Cn1nnnc1O[C@H]1CC[C@H](NC(=O)c2ccc(-c3cccc(F)c3)nc2)CC1` [Example 82, 6-(3-Fluorophenyl)-N-{trans-4-[(1-methyl-1H-tetrazol-5-yl)oxy]cyclohexyl}nicotinamide] was tested, and the IC50 was 12.6 nM. `O=C(N[C@H]1CC[C@H](OCCO)CC1)c1ccc(-c2cccc(F)c2)nc1` [Example 89, 6-(3-Fluorophenyl)-N-[trans-4-(2-hydroxyethoxy)cyclohexyl]nicotinamide] showed an IC50 of 3.93 nM. Work on `O=C(N[C@@H]1CCC[C@H](O)C1)c1ccc(-c2cccc(F)c2)nc1` (relative stereo) [Example 26, 6-(3-Fluorophenyl)-N-[cis-3-hydroxycyclohexyl]nicotinamide] yielded an IC50 of 18.2 nM. For `COCCNC1CCC(NC(=O)c2ccc(-c3cccc(F)c3)nc2)CC1` (single isomer, unassigned) [Example 55, 6-(3-Fluorophenyl)-N-{4-[(2-methoxyethyl)amino]cyclohexyl}nicotinamide], the IC50 was 18.5 nM. `O=C(N[C@H]1CCC[C@@H](C(=O)N[C@H]2CCNC2=O)C1)c1ccc(-c2cccc(F)c2)nc1` (mixture of isomers) [Example 64H, 6-(3-fluorophenyl)-N-[cis-3-{[(3S)-2-oxopyrrolidin-3-yl]carbamoyl}cyclohexyl]nicotinamide] gave an IC50 of 13 nM. With `CN[C@H]1CC[C@H](NC(=O)c2ccc(-c3cccc(F)c3)nc2)CC1` [Example 94, 6-(3-Fluorophenyl)-N-[trans-4-(methylamino)cyclohexyl]-nicotinamide] the IC50 was 51.9 nM. With `O=C(N[C@@H]1CC[C@H](C(=O)O)C1)c1ccc(-c2cccc(F)c2)nc1` [Example 11a, (1S,3R)-3-({[6-(3-Fluorophenyl)pyridin-3-yl]carbonyl}amino)cyclopentanecarboxylic acid] the IC50 was 125 nM. For `O=C(NC1CCC(N2CC[C@@H](O)C2)CC1)c1ccc(-c2cccc(F)c2)nc1` (single isomer, unassigned) [Example 60], the IC50 was 111 nM. `CCN(C)C(=O)[C@@H]1CCC[C@H](NC(=O)c2ccc(-c3cccc(F)c3)nc2)C1` (relative stereo) [Example 32, N-{cis-3-[Ethyl(methyl)carbamoyl]cyclohexyl}-6-(3-fluorophenyl)nicotinamide] showed an IC50 of 37.9 nM. `O=C(NC1CCCc2cccnc21)c1ccc(-c2cccc(F)c2)nc1` (stereo not drawn) [Example 128, 6-(3-Fluorophenyl)-N-(5,6,7,8-tetrahydroquinolin-8-yl)nicotinamide] was tested, and the IC50 was 179 nM. With `COCCN(C)C1CCC(NC(=O)c2ccc(-c3cccc(F)c3)nc2)CC1` (single isomer, unassigned) [Example 58, 6-(3-Fluorophenyl)-N-{4-[(2-methoxyethyl)(methyl)amino]cyclohexyl}nicotinamide] the IC50 was 307 nM.
